In PMC2229574 (The Journal of General Physiology, 2003):
“And” between values parts separate entries of the source, which are not always exact repeats. Identical values can stand only once. Like-named read-outs stand apart in the source and are kept apart here.

Key:
mouse AChR αD97N = mouse AChR αD97N (Mus musculus, UniProt P02716+P04756+P20782, D117N)
mouse AChR αD97Y = mouse AChR αD97Y (Mus musculus, UniProt P02716+P04756+P20782, D117Y)
[1] = molecular target: mouse AChR δ-subunit D99V (Mus musculus, UniProt P02716+P04756+P20782, D123V); details: 20 mM choline
[2] = molecular target: mouse AChR ɛ-subunit D97V (Mus musculus, UniProt P02716+P04756+P20782, D117V); details: 20 mM choline
mouse AChR αD97M = mouse AChR αD97M (Mus musculus, UniProt P02716+P04756+P20782, D117M)
mouse AChR αD97R = mouse AChR αD97R (Mus musculus, UniProt P02716+P04756+P20782, D117R)
mouse AChR αD97V = mouse AChR αD97V (Mus musculus, UniProt P02716+P04756+P20782, D117V)
[3] = molecular target: mouse AChR δ-subunit N98A (Mus musculus, UniProt P02716+P04756+P20782, N122A); details: 20 mM choline
mouse AChR αD97Q = mouse AChR αD97Q (Mus musculus, UniProt P02716+P04756+P20782, D117Q)
Chain of mouse AChR αD97Q (P04756 21-457 D117Q): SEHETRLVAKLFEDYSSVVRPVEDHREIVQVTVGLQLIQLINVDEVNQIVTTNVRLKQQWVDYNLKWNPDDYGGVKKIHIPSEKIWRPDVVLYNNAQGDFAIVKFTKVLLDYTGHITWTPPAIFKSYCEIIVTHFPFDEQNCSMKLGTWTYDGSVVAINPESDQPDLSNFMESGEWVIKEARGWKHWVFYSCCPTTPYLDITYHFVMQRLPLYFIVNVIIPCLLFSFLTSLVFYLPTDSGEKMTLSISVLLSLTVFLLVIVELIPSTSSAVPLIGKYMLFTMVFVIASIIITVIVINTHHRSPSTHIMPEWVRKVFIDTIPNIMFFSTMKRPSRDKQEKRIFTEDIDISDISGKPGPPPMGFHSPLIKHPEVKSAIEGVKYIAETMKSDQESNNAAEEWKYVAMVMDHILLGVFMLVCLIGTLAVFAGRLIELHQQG
Chain of mouse AChR αD97Q (P09690 24-501 partner): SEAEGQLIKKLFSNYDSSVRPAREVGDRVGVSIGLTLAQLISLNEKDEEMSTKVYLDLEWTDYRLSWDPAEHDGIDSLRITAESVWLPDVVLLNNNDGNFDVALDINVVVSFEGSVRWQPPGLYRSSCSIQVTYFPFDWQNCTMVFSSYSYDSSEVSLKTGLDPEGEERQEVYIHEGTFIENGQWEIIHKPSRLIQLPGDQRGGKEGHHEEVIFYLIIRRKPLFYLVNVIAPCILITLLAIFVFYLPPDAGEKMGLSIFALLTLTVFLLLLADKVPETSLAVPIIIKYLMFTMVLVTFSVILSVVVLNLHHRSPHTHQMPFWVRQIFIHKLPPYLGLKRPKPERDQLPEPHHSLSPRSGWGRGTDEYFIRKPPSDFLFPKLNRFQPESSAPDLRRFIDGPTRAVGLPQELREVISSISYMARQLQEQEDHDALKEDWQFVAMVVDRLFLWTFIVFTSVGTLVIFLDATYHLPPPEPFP
Chain of mouse AChR αD97Q (P02716 25-520): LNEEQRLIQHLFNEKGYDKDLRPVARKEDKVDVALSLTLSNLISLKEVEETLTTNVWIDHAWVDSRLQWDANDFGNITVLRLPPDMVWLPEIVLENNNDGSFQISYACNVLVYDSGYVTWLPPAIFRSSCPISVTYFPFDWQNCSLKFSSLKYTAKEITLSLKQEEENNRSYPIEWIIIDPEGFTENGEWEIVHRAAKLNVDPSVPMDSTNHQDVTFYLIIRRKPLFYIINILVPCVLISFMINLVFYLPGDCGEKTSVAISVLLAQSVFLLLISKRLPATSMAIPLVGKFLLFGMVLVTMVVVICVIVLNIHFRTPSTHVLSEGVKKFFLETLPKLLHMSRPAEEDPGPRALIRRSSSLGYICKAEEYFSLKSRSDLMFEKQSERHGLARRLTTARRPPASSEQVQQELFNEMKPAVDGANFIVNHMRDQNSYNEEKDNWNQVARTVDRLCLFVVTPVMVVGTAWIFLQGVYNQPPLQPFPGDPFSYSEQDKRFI
Chain of mouse AChR αD97Q (P20782 21-493, stated change not applied): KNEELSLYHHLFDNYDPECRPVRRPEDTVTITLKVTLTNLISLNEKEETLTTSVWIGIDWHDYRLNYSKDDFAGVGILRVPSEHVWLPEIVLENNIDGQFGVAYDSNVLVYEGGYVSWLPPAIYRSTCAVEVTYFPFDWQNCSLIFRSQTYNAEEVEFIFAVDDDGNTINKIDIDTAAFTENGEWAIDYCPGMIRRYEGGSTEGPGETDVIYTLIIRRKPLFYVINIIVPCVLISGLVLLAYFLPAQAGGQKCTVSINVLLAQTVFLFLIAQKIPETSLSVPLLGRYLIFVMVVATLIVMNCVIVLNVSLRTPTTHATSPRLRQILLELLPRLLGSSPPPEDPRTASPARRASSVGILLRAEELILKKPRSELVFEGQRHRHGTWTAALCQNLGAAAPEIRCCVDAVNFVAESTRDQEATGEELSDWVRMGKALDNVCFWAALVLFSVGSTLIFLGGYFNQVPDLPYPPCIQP

mouse AChR αD97I = mouse AChR αD97I (Mus musculus, UniProt P02716+P04756+P20782, D117I)
mouse AChR αD97E [4] = molecular target: T1, mouse AChR αD97E (Mus musculus, UniProt P02716+P04756+P20782, D117E); test: cell-based
T1 sequence (P04756 21-457 D117E): as the sequence (P04756 21-457 D117Q) above, with Q97E counted along it
T1 sequence (P09690 24-501 partner): as the sequence (P09690 24-501 partner) above
T1 sequence (P02716 25-520): as the sequence (P02716 25-520) above
T1 sequence (P20782 21-493, stated change not applied): as the sequence (P20782 21-493, stated change not applied) above

[5] = tested on: hybrid AChR (one wild-type α-subunit and one D97A α-subunit), hybrid 2; details: 20 mM choline
mouse AChR αD97C = mouse AChR αD97C (Mus musculus, UniProt P02716+P04756+P20782, D117C)
mouse AChR αD97P = mouse AChR αD97P (Mus musculus, UniProt P02716+P04756+P20782, D117P); details: for α2 (diliganded channel closing rate constant): 0.4 mM choline; for β2 (diliganded channel opening rate constant): 20 mM choline; for L2 (diliganded gating equilibrium constant, β2/α2) / L2-ratio (mut/wt): choline
mouse AChR αD97E [6] = molecular target: T1, mouse AChR αD97E; details: for L2: kinetic modeling
[7] = joint fit choline 1, 2 and 5 mM, Scheme I

L2-ratio (mut/wt) (mouse AChR αD97N; choline): 2.37
L2-ratio (mut/wt) (mouse AChR αD97Y; choline): 14.72
α2* (apparent channel closing rate constant) [1]: 561 s⁻¹
β2 (channel opening rate constant) [1]: 117 s⁻¹
α2* (apparent channel closing rate constant) [2]: 933 s⁻¹
β2 (channel opening rate constant) [2]: 103 s⁻¹
L2-ratio (mut/wt) (mouse AChR αD97M; choline): 7.78
L2-ratio (mut/wt) (mouse AChR αD97R; choline): 139.12
L2-ratio (mut/wt) (mouse AChR αD97V; choline): 1.71
α2* (apparent channel closing rate constant) [3]: 1,335 s^−1
β2 (channel opening rate constant) [3]: 36 s⁻¹
L2-ratio (mut/wt) (mouse AChR αD97Q; choline): 62.56
L2-ratio (mut/wt) (mouse AChR αD97I; choline): 0.45
Kd (mouse AChR αD97E [4]; Kd (k−/k+), αD97E, choline, kinetic modeling, Scheme I): 2100 µM and 2140 µM
kon (mouse AChR αD97E [4]; read-out: k+ (association rate constant, single TBS)): 2.84e+06 M⁻¹ s⁻¹
koff (mouse AChR αD97E [4]; read-out: k− (dissociation rate constant, single TBS)): 6070 s⁻¹
L2-ratio (mut/wt) (mouse AChR αD97C; choline): 5.13
L2-ratio (mut/wt) (mouse AChR αD97P; αD97P kinetic mode P1): 2.97
L2-ratio (mut/wt) (mouse AChR αD97P; αD97P kinetic mode P2): 12.88
β2 from saturation of the effective opening rate (mouse AChR αD97E [6]; choline, fit by Eq. 1): 2,875 s^−1
L2 (equilibrium gating constant) from Popen dose–response analysis (mouse AChR αD97E [6]; choline, fit by Eq. 2): 2.9 ± 0.7 and 2.9
L2 (mouse AChR αD97E [6]; choline, Scheme I): 1.3 ± 0.2
L2 (mouse AChR αD97E [6]; choline, Scheme I, listed as Choline): 1.31 ± 0.21
α2 (mouse AChR αD97E [6]; [7]): 2,293 ± 214 s^−1
β2 (mouse AChR αD97E [6]; [7]): 3,024 ± 131 s^−1
Compound: C[N+](C)(C)CCO [choline]
α2 (diliganded channel closing rate constant) (mouse AChR αD97N; 0.4 mM choline): 2,379 s^−1
β2 (diliganded channel opening rate constant) (mouse AChR αD97N; 20 mM choline): 268 s⁻¹
L2 (diliganded gating equilibrium constant, β2/α2) (mouse AChR αD97N; choline): 0.113
α2 (diliganded channel closing rate constant) (mouse AChR αD97Y; 0.4 mM choline): 1,992 s^−1
β2 (diliganded channel opening rate constant) (mouse AChR αD97Y; 20 mM choline): 1,396 s^−1
L2 (diliganded gating equilibrium constant, β2/α2) (mouse AChR αD97Y; choline): 0.701
α2 (diliganded channel closing rate constant) (mouse AChR αD97M; 0.4 mM choline): 2,255 s^−1
β2 (diliganded channel opening rate constant) (mouse AChR αD97M; 20 mM choline): 835 s⁻¹
L2 (diliganded gating equilibrium constant, β2/α2) (mouse AChR αD97M; choline): 0.370
α2 (diliganded channel closing rate constant) (mouse AChR αD97R; 0.4 mM choline): 1,653 s^−1
β2 (diliganded channel opening rate constant) (mouse AChR αD97R; 20 mM choline): 10,951 s^−1
L2 (diliganded gating equilibrium constant, β2/α2) (mouse AChR αD97R; choline): 6.624
α2 (diliganded channel closing rate constant) (mouse AChR αD97V; 0.4 mM choline): 1,974 s^−1
β2 (diliganded channel opening rate constant) (mouse AChR αD97V; 20 mM choline): 161 s⁻¹
L2 (diliganded gating equilibrium constant, β2/α2) (mouse AChR αD97V; choline): 0.082
α2 (diliganded channel closing rate constant) (mouse AChR αD97Q; 0.4 mM choline): 2,016 s^−1
β2 (diliganded channel opening rate constant) (mouse AChR αD97Q; 20 mM choline): 6,006 s^−1
L2 (diliganded gating equilibrium constant, β2/α2) (mouse AChR αD97Q; choline): 2.979
α2 (diliganded channel closing rate constant) (mouse AChR αD97I; 0.4 mM choline): 2,801 s^−1
β2 (diliganded channel opening rate constant) (mouse AChR αD97I; 20 mM choline): 60 s⁻¹
L2 (diliganded gating equilibrium constant, β2/α2) (mouse AChR αD97I; choline): 0.022
ΔΔG0 for channel gating, 0.59 ln(L2^wt/L2^mut) [5]: 0.95 kcal mol^−1
α2 (diliganded channel closing rate constant) (mouse AChR αD97C; 0.4 mM choline): 2,172 s^−1
β2 (diliganded channel opening rate constant) (mouse AChR αD97C; 20 mM choline): 531 s⁻¹
L2 (diliganded gating equilibrium constant, β2/α2) (mouse AChR αD97C; choline): 0.244
α2 (diliganded channel closing rate constant) (mouse AChR αD97P; αD97P kinetic mode P1): 2,276 s^−1
β2 (diliganded channel opening rate constant) (mouse AChR αD97P; αD97P kinetic mode P1): 322 s⁻¹
L2 (diliganded gating equilibrium constant, β2/α2) (mouse AChR αD97P; αD97P kinetic mode P1): 0.141
α2 (diliganded channel closing rate constant) (mouse AChR αD97P; αD97P kinetic mode P2): 2,276 s^−1
β2 (diliganded channel opening rate constant) (mouse AChR αD97P; αD97P kinetic mode P2): 1,396 s^−1
L2 (diliganded gating equilibrium constant, β2/α2) (mouse AChR αD97P; αD97P kinetic mode P2): 0.613
α2 (diliganded channel closing rate constant) (mouse AChR αD97E [6]; 0.4 mM choline): 2,076 s^−1
β2 (diliganded channel opening rate constant) (mouse AChR αD97E [6]; 20 mM choline): 2,967 s^−1
L2 (diliganded gating equilibrium constant, β2/α2) (mouse AChR αD97E [6]; choline): 1.429
